From US11840551B2, “Compositions and methods of modulating the immune response by activating alpha protein kinase 1” (Shanghai Yao Yuan Biotechnology Co., Ltd., priority 2017, dated 2023)

Key:
[1] = tested on: Cxcl1, Cxcl11, IL1b, and IL6 in mouse liver and lung tissue; assay: Tissue expression of chemokines and cytokines after subcutaneous injection (qPCR); type: in vivo, C57 mice; conditions: subcutaneous, 2, 10, 50, 200 nmol tested, tissue harvested three hours later
Method: In additional experiments, Compound 1 was injected subcutaneously into 7 week old C57 mice at concentrations of 2, 10, 50, and 200 nmol. Tissue was harvested three hours later and RNA extracted. Quantitative PCR (qPCR) was performed to determine the tissue expression levels Cxcl1, Cxcl11, IL1b, and IL6 in mouse liver (FIG. 32A) and lung (FIG. 32B) tissue. Additional chemokines and cytokines were assayed in the lung tissue.

ALPK1 [2] = molecular target: T1, ALPK1 (Homo sapiens, UniProt Q96QP1); assay: IL8 secretion in HEK293 cells (IL8 ELISA) as indicator of ALPK1 activation; conditions: for IL8 secretion in HEK293 cells: without FBS, serial dilutions, 4 hours; for restoration of H1b-ADP's activity in the cell based assay (IL8 secretion): added to the FBS-containing medium, HEK293 cells
Method: Phosphatase such as the alkaline phosphatase may be responsible for H1b-ADP hydrolysis. We pre-mixed H1b-ADP with phosphatase inhibitor sodium orthovanadate (Na3VO4) before incubation with FBS. […] We hypothesized that the accumulation of hydrolysis product AMP can inhibit phosphatase activity.
A number of H1b-ADP derivative compounds were made as described herein and tested for biological activity as agonists of ALPK1 in vitro. In these experiments, serial dilutions of the compounds were added to the tissue culture media of HEK293 cells with (FIG. 27B, FIG. 28B, FIG. 29B) or without (FIG. 26, FIG. 27A, FIG. 28A, FIG. 29A) 10% FBS, as indicated in the figures. After 4 hours, the cell supernatant was collected and analyzed for IL8 concentration using IL8 ELISA (BD) as an indicator of ALPK1 activation.

CT26 cells = assay: CT26 tumor xenograft model, tumor growth (tumor volume); type: in vivo, BALB/c mice; conditions: Example 18, FIG. 30; 50 nmol, injections at days 7, 9, 11
Method: We used a CT26 tumor xenograft model to test the anti-cancer activity of H1b-ADP. Tumor cells (2×10^5 per 100 uL CT26 cells) were inoculated subcutaneously into the right flank of BALB/c mice. At day 6, mice whose tumors had reached 3-5 mm in diameter were randomized and grouped into three groups (n=8 each group), control, HMP-1bP (580 ug), and H1b-ADP (1.2 ug). Injections were performed using a total volume of 20 uL at days 6, 8, 10, 12, and 14 post inoculation. Tumor volumes were calculated every 2 days from caliper measurements of tumor dimension using the formula (L×W^2)/2, where L is the longer measurement.
To test whether H1b-ADP could augment an anti-tumor response by a checkpoint inhibitor, we tested the effects of co-administration with an anti-PD1 antibody. Tumor cells (2×10^5 per 100 μL CT26 cells) were inoculated subcutaneously into the left and right flanks of BALB/c mice. At day 7, mice whose tumors had reached 5 mm in diameter were randomized and grouped (n=8 each group) into the following four groups: anti-PD1 antibody; rat IgG; H1b-ADP+rat IgG; H1b-ADP+anti-PD1 antibody. We utilized RMP1-14 as the anti-PD1 antibody (10 mg/kg) and a rat IgG 2a (2A3) as the control IgG. Each of the anti-PD-1 antibody and the control IgG was administered intraperitoneally in a 200 μL volume on days 6, 10, 12, and 17 post-inoculation. H1b-ADP (6.2 μg) was intratumorally injected in a 20 μL volume at day 6, 8, 10, 12, and 15. Tumor volumes were calculated every 2 days from caliper measurements of tumor dimensions using the formula (L×W^2)/2, where L is the longer measurement. The results are shown in FIG. 13A for injected tumors and FIG. 13B for distant tumors. […]
The experiment was carried out as combo experiments of anti-PD1 except for the following variations. At day 6, mice whose tumors had reached 5 mm in diameter were randomized and grouped into the following four groups: anti-CTLA-4 antibody; rat IgG; H1b-ADP+rat IgG; H1b-ADP+anti-CTLA-4 antibody. We utilized 9D9 (BioxCell) as the anti-CTLA-4 antibody and a rat IgG 2b isotype (MPC-11 clone, BE0086, BioXCell) as the control IgG. Each of the anti-CTLA-4 antibody (25 μg) and the control IgG (25 μg) was administered intraperitoneally in a 200 μL volume on days 6 and 9 post-inoculation. H1b-ADP (6.2 μg) was administered intratumorally in a 20 μL volume on days 6, 7, 9, 11 post-inoculation.
The experiment was carried out as combo experiments of anti-PD1 except for the following variations. At day 6, mice whose tumors had reached 5 mm in diameter were randomized and grouped into the following four groups: c-di-AM(PS)2; PBS; H1b-ADP; H1b-ADP+c-di-AM(PS)2. We utilized c-di-AM(PS)2 as the STING agonist. […]

ALPK1 [3] = molecular target: T1, ALPK1; assay: Cell-free kinase assay of ALPK1 autophosphorylation (Western, anti-phospho-threonine); type: biochemical; conditions: 2 nM ALPK1 with ATP, 25° C., 1 h; H1b-ADP 10, 1, 0.2 nM; HBP and HMP-1bP 1, 10, 100 nM
Method: ALPK1 activation results in its autophosphorylation. Accordingly, we next asked whether the binding of H1b-ADP to ALPK1 was sufficient to induce ALPK1 autophosphorylation. Phosphorylation assays were performed according to standard protocols. Briefly, ALPK1 was incubated (2 nM, 25° C., 1 h) in assay buffer (20 μl, 25 mM HEPES pH 7.5, 50 mM KCl, 0.1 mM EDTA, 0.1 mM EGTA, 2 mM DTT, 1.5 mM CaCl2, 10 mM MgCl2) with ATP and chemically synthesized HBP, HMP-1bP, or H1b-ADP followed by denaturing gel electrophoresis and Western analysis with an anti-phospho-threonine antibody (CST) to detect autophosphorylation of ALPK1. […] The range of concentrations of HBP and HMP-1bP used in this assay (1 nM, 10 nM, 100 nM) was 10-fold higher than that used for H1b-ADP.

ALPK1 [4] = molecular target: T1, ALPK1; assay: IL-8 and TNFα mRNA expression in HEK293 cells with control or ALPK1-directed siRNA (qPCR); type: cell-based; parameters: silence ALPK1 expression in HEK293 cells; endogenous in cells; host or cells: HEK293; conditions: control vs ALPK1-directed siRNA, 4 hours, HBP 500, 100, 20 uM, HMP-1bP 500, 100 uM, H1b-ADP 100, 20, 4, 0.8 nM
Method: To test whether HBP, HMP-1bP, and H1b-ADP were able to induce cytokine expression in an ALPK1 dependent manner, we used an ALPK1-directed small interfering RNA (siRNA) to silence ALPK1 expression in HEK293 cells. Cells were plated (1×10^4 cells/well) into 96-well plates and transfected with either control siRNA or ALPK1-directed siRNA according to the manufacturer's protocols (Lipofectamine™ RNAiMax™, Invitrogen 13778075). Following 2 days of culture, either (1) HBP (500 uM, 100 uM, 20 uM, FIG. 2A-2B) (2) HMP-1bP (500 uM, 100 uM, FIG. 3A-3B), (3) H1b-ADP (100 nM, 20 nM, 4 nM, 0.8 nM, FIG. 4A-4B) was added to culture medium and cells were harvested 4 hours later.

ALPK1 [5] = molecular target: T1, ALPK1; assay: In vitro kinase assay of ALPK1-dependent TIFA phosphorylation; type: biochemical; conditions: FIG. 7, chemically-synthesized compounds
Method: We performed an in vitro kinase assay with H1b-ADP and H1b-ADP-6L along with ALPK1 protein (2 nM), and TIFA protein (1.6 uM) in kinase buffer containing 50 uM ATP. TIFA phosphorylation was analyzed by denaturing gel electrophoresis followed by western blotting using an anti-phosphothreonine antibody. H1b-ADP or H1b-ADP-6L was added at 2 nM, 0.4 nM, 80 pM, 16 pM, and 3 pM.
To test this, we performed an in vitro kinase reaction for ALPK1-dependent TIFA phosphorylation in the presence of either HBP or HIdA purified from E. coli containing inactivated HIdE, or in the presence of HBP and HIdA purified from the same HIdE wild-type E. coli used in the previous experiments. Phosphorylated TIFA (three concentrations, 1%, 0.2% and […]) was detected as described above by denaturing gel electrophoresis followed by Western analysis.

ALPK1 [6] = molecular target: T1, ALPK1; assay: Thermal shift assay (SYPRO Orange) for binding to ALPK1; conditions: ALPK1 7 uM; 1, 5, 25, 125 uM compound; H1b-ADP shift at 5, 25 and 125 uM
From the text: The thermal shift assay is widely used to determine the binding of a molecule to a protein of interest. The assay is based on the increase in thermal energy required for denaturation of a protein where another molecule is bound to the protein. SYPRO Orange is a fluorescent compound used in the detection of thermal shift. SYPRO Orange binds to hydrophobic surfaces of the protein, and water strongly quenches its fluorescence. When the protein unfolds, the exposed hydrophobic surfaces bind the dye, resulting in an increase in fluorescence. When another molecule is bound to the protein, an increase in the temperature required for unfolding of the protein is observed.
This assay system was used to determine whether or not chemically synthesized HBP, HMP-1bP, and H1b-ADP directly bind to ALPK1. […] Only H1b-ADP induced a shift of more than 1 degree, at each of the three highest concentrations tested, 5 uM, 25 uM, and 125 uM.

[7] = tested on: phosphatase activity in the serum; assay: Incubation of H1b-ADP with FBS, product analysed by LC-MS; type: in vitro ADME, bovine
From the text: (§1) FBS contains 110-352 μU/ml alkaline phosphatase.

[8] = tested on: bovine alkaline phosphatase; assay: Incubation of H1b-ADP with bovine alkaline phosphatase; type: biochemical; conditions: H1b-ADP incubated with bovine alkaline phosphatase, increasing amount of Na3VO4
From the text: as §1

T1 sequence (Q96QP1 whole entry): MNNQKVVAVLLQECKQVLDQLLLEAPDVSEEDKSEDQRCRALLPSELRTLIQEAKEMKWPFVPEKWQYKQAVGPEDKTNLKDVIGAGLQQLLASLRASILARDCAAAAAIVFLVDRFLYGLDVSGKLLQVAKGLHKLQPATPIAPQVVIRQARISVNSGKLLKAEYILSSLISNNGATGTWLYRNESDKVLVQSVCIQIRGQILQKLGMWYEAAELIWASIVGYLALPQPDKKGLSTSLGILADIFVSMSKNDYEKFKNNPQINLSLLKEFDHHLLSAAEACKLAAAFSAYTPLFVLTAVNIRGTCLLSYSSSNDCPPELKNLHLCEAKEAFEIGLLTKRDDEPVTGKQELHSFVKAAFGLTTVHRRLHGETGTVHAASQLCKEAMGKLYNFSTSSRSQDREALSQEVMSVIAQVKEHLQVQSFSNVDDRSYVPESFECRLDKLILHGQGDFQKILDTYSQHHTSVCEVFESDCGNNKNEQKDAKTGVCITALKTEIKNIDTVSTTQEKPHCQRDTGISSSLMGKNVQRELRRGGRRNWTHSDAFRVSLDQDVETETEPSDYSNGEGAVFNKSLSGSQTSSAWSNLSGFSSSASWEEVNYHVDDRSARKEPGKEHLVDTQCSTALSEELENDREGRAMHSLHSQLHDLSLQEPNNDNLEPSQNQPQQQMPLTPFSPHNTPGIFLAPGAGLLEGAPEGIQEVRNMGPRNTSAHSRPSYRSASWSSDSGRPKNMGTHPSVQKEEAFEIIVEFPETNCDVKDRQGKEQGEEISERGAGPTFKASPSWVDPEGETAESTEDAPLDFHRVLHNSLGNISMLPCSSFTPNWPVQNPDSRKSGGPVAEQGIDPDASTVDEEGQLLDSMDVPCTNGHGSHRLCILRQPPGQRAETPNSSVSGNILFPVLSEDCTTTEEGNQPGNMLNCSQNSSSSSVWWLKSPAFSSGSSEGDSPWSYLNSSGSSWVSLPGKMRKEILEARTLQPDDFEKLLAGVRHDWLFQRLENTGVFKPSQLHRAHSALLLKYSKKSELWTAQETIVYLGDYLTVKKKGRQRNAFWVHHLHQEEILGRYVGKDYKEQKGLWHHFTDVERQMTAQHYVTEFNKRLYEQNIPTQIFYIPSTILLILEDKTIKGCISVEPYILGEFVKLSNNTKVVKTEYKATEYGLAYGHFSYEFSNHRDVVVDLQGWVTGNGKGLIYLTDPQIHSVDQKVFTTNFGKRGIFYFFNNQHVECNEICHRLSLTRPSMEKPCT

CC(=O)OC[C@@H](OC(C)=O)[C@H]1O[C@@H](OP(=O)(O)OP(=O)(O)OC[C@H]2O[C@@H](n3cnc4c(N)ncnc43)[C@H](O)[C@@H]2F)[C@@H](OC(C)=O)[C@@H](OC(C)=O)[C@@H]1OC(C)=O [Compound 1, (2S,3S,4S,5R,6R)-2-(((((((2R,3S,4S,5R)-5-(6-amino-9H-purin-9-yl)-3-fluoro-4-hydroxytetrahydrofuran-2-yl)methoxy)(hydroxy)phosphoryl)oxy)(hydroxy)phosphoryl)oxy)-6-((R)-1,2-diacetoxyethyl)tetrahydro-2H-pyran-3,4,5-triyl triacetate]
dose that activates an inflammatory response in liver tissue [1]: 2 nmol | dose that activates an inflammatory response in lung tissue [1]: 200 nmol | IL8 secretion in HEK293 cells (ALPK1 [2]): activate IL8 secretion | tumor growth (CT26 cells): reduced tumor growth

O=P(O)(O)OC[C@@H](O)[C@H]1O[C@@H](OP(=O)(O)O)[C@@H](O)[C@@H](O)[C@@H]1O [HBP, D-glycero-β-D-manno-heptose 1,7-bisphosphate]
autophosphorylation of ALPK1 (ALPK1 [3]): not HBP or HMP-1bP induces ATP-dependent autophosphorylation | IL-8 mRNA expression (ALPK1 [4]): increased in an ALPK1-dependent manner | TNFα mRNA expression (ALPK1 [4]): increased in an ALPK1-dependent manner | phosphorylation of the ALPK1 substrate TIFA (ALPK1 [5]): TIFA is phosphorylated only in the presence of H1b-ADP | thermal shift of ALPK1 (ALPK1 [6]): Neither HBP nor HMP-1bP were able to induce a thermal shift

Nc1ncnc2c1ncn2[C@@H]1O[C@H](COP(=O)(O)OP(=O)(O)O[C@@H]2OC([C@H](O)CO)[C@@H](O)C(O)C2O)C(F)C1O (stereo in doubt) [Compound 2, Adenosine-3′-fluoro-5′-(D-glycero-β-D-mannoheptopyranosyl) diphosphate]
IL8 secretion in HEK293 cells (ALPK1 [2]): activate IL8 secretion | tumor growth (CT26 cells): reduced tumor growth

Nc1ncnc2c1ncn2[C@@H]1O[C@H](COP(=O)(O)O)[C@@H](O)[C@H]1O [AMP, reference compound]
restoration of H1b-ADP's activity in the cell based assay (IL8 secretion) (ALPK1 [2]): could restore H1b-ADP's activity in the cell based assay | phosphatase activity in serum (H1b-ADP hydrolysis) ([7]; pre-treatment of H1b-ADP with AMP before serum incubation): inhibited phosphatase activity and the inhibition was AMP dose-dependent

[Na+].[Na+].[Na+].[O]=[V]([O-])([O-])[O-] [Na3VO4, sodium orthovanadate]
phosphatase activity on H1b-ADP [8]: the phosphatase activity was blocked by increasing amount of Na3VO4 | restoration of H1b-ADP's activity in the cell based assay (IL8 secretion) (ALPK1 [2]): could restore H1b-ADP's activity in the cell based assay | H1b-ADP hydrolysis in FBS ([7]; H1b-ADP pre-mixed with 1 mM Na3VO4 before incubation with FBS): effectively inhibited H1b-ADP hydrolysis
